Assays:
women with DOR = test: Matched case control study of embryo aneuploidy by preimplantation genetic screening (Example 11); type: in vivo, human
Method: In a 1:2, matched case control study, 22 consecutive women with DOR, supplemented with DHEA, underwent preimplantation genetic screening (PGS) of embryos during in vitro fertilization (IVF) cycles. Each was matched by patient age and time period of IVF with two control IVF cycles without DHEA supplementation (n=44). PGS was performed for chromosomes X, Y, 13, 16, 18, 21 and 22, and involved determination of numbers and percentages of aneuploid embryos.
We retrieved from our center's computerized research data bank a total of 22 consecutive DOR patients who underwent IVF/PGS while on DHEA supplementation. Only first IVF cycles were analyzed. These cycles were matched with the two control cycles not on DHEA supplementation, based on patient age and year of treatment (44 controls).
Normal age-specific hormone levels were defined by 95% confidence intervals at all ages, as previously reported. Since patients with DOR were, thus, uniformly diagnosed before IVF cycle protocols were determined, they were all supplemented with DHEA, and stimulation adjustments were made.
During the study period all DOR patients at our center routinely received DHEA supplementation. Those not receiving DHEA, therefore, by definition, had age-appropriate ovarian reserve, confirmed by normal anti-Müllerian hormone (AMH), follicle stimulating hormone (FSH) baseline levels and estradiol. Patients receiving DHEA supplementation were prescribed 25 mg of micronized, pharmaceutical grade DHEA, T.I.D, for at least four weeks prior to IVF cycle start. Short-term supplementation was defined as 4 to 12 weeks of DHEA prior to IVF and PGS; supplementation beyond that was considered long-term supplementation.
Patients with premature DOR, or if over 40 years of age, in first treatment cycles universally receive a so-called microdose gonadotropin releasing hormone agonist (GnRH-a) ovarian stimulation protocol, characterized by leuprolide acetate (50 μg/0.1 mL, b.i.d.; Lupron®, Abbot Pharmaceuticals, North Chicago, Ill.) and ovarian stimulation with follicle stimulating hormone (FSH, 300 IU-450 IU daily) and human menopausal gonadotropins (hMG, 150 IU). If under age 40 with normal ovarian reserve patients receive down regulation with full dose GnRH-a (1.0 mg/0.1 mL) and ovarian stimulation with up to 300 IU of gonadotropins, usually half as FSH and half as hMG. Higher luteinizing hormone (LH) contributions to ovarian stimulation, if anything, reduce embryo aneuploidy. The small difference in ovarian stimulation protocols between women with DOR and controls, therefore, potentially biases study outcome towards lower aneuploidy rates in the control population, which received a proportionally higher LH contributions to ovarian stimulation.
PGS was performed, utilizing fluorescence in situ hybridization (FISH) in routine fashion, utilizing probes for seven chromosomes (X, Y, 13, 16, 18, 21 and 22) on day three after fertilization, when embryos reached six to eight cell stages. This restricted chromosome panel is currently routinely utilized for PGS.
A general linear model was constructed to assess DHEA effects on percent aneuploidy after adjustment for age, indications for PGS, stimulation protocol and total gonadotropin dosage utilized. The latter adjustment was made as a surrogate for potential physician biases in how individual patients were stimulated, and potential effects such stimulation biases may have on ploidy.

[1] = tested on: proven poor responders to ovarian stimulation with gonadotropins; conditions: 80 mg micronized DHEA for two months; five poor responders, six IVF cycles; cited from earlier work
DOR patients = test: Pregnancy outcome at various AMH levels under DHEA supplementation; type: in vivo, human
Description: Another study from our center further supports these conclusions (FIG. 22). FIG. 22 is a graph showing spontaneous pregnancy loss in spontaneous and IVF pregnancies at various AMH levels. The figure depicts at various AMH levels in the left column IVF pregnancies (IVF), as previously reported (26), and in the right column spontaneously conceived pregnancies (SP). Each column represents 100% of all pregnancies established, separated for live births (black section), voluntary termination of pregnancy (TOP; usually for aneuploidy) and spontaneous miscarriages (SAB).
In that study (FIG. 22), we investigated live birth rates after IVF at extremely low anti-Müllerian hormone (AMH) levels and were surprised how low miscarriage rates were between non-detectable levels of AMH and 0.4 ng/mL. Losses then increased between AMH 0.41-1.05 ng/mL to over 50 percent, the expected rate in DOR patients, only to fall, once again, to very low levels above AMH 1.05 ng/mL. […]
AMH<1.05 ng/mL represents more severe DOR. […] Chances of clinical pregnancies, miscarriages, terminations of pregnancy, and viable deliveries were then determined among severe DOR patients, depending on AMH levels (below detection, <0.1 ng/mL, 0.1-0.4 ng/mL, 0.41-0.8 ng/mL, 0.81-1.05 ng/mL) and with milder DOR (>1.06 ng/mL). […]

[2] = DHEA patients n=22, PGS by FISH, seven chromosomes

## C[C@]12CC[C@H](O)CC1=CC[C@@H]1[C@@H]2CC[C@]2(C)C(=O)CC[C@@H]12 [DHEA, Dehydroepiandrosterone]
Women with DOR; DHEA patients n=22
  Embryo Grades (mean ± SD): 3.4±0.4
  Embryos Cryopreserved (n, mean ± SD): 0.7±1.6
  Embryos Transferred (n, mean ± SD): 1.4±0.9
  Embryos Undergoing PGS (n, mean ± SD): 7.3±3.9
Women with DOR; DHEA patients n=22, 25 mg T.I.D. at least four weeks
  Oocytes retrieved (n, mean ± SD): 9.6±6.2
Women with DOR; [2]
  aneuploid embryos (absolute number): 2.8±2.5
  percentages of aneuploidy: 38.2±24.4
Women with DOR; short term supplementation (4-12 weeks), 95% CI -2.871-46.031
  reduction in aneuploidy: 21.6%
[1]
  response to ovarian stimulation compared with prior unsupplemented cycle: improved responsiveness
DOR patients; DOR patients under DHEA supplementation, up to AMH 1.05 ng/mL
  chance of live birth per treatment cycle: approximately 5%
DOR patients; under DHEA supplementation, absence of detectable AMH
  pregnancy chance per IVF cycle: ~5%

Source: patent publication US9375436B2, “Androgen treatment in females” (priority 2004, dated 2016)
